Laboratory results from ChEMBL document CHEMBL1201862, “PubChem BioAssay data set” (2004).
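Cells were grown in 96-well plates and exposed to each compound for 48 hours at five concentrations; endpoints were interpolated linearly between bracketing concentrations, or set to the highest concentration if not reached. Here, GI50 denotes the concentration required for 50% inhibition of growth.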 Active and inactive are the calls of the source. Cut-off read from the data, not from the text of the source: active = GI50 up to about 1.1 µM and inactive = higher.

Key:
Experiment in all cases: inhibition of tumour cell growth, NCI panel, 48 h
A549 = test system: A549
HOP-92 = test system: HOP-92
KM-20L2 = test system: KM-20L2
UO-31 = test system: UO-31
NCI-H522 = test system: NCI-H522
IGROV-1 = test system: IGROV-1
SNB-75 = test system: SNB-75
MOLT-4 = test system: MOLT-4
Malme-3M = test system: Malme-3M
CAKI-1 = test system: CAKI-1
NCI-H226 = test system: NCI-H226
LXFL 529 = test system: LXFL 529
COLO 205 = test system: COLO 205
K562 = test system: K562
OVCAR-4 = test system: OVCAR-4
SW-620 = test system: SW-620
OVCAR-3 = test system: OVCAR-3
SF-539 = test system: SF-539
HCT-116 = test system: HCT-116
786-0 = test system: 786-0
SK-OV-3 = test system: SK-OV-3
UACC-62 = test system: UACC-62
HL-60 = test system: HL-60
HOP-18 = test system: HOP-18
TK-10 = test system: TK-10
LOX IMVI = test system: LOX IMVI
SR = test system: SR
M14 = test system: M14
NCI-H23 = test system: NCI-H23
KM12 = test system: KM12
DMS-114 = test system: DMS-114
ACHN = test system: ACHN
RXF 393 = test system: RXF 393
DLD-1 = test system: DLD-1
SK-MEL-28 = test system: SK-MEL-28
SF-268 = test system: SF-268
HCT-15 = test system: HCT-15
SF-295 = test system: SF-295
M19-MEL = test system: M19-MEL
UACC-257 = test system: UACC-257
HCC 2998 = test system: HCC 2998
HOP-62 = test system: HOP-62
EKVX = test system: EKVX
CCRF-CEM = test system: CCRF-CEM
SNB-19 = test system: SNB-19
NCI-H460 = test system: NCI-H460
OVCAR-8 = test system: OVCAR-8
RXF 631 = test system: RXF 631
U-251 = test system: U-251
OVCAR-5 = test system: OVCAR-5
A498 = test system: A498
HT-29 = test system: HT-29
SN12C = test system: SN12C
RPMI-8226 = test system: RPMI-8226
SNB-78 = test system: SNB-78
SK-MEL-5 = test system: SK-MEL-5

C/C(=C\C(=O)Nc1ccc2[nH]nnc2c1)Nc1ccc2[nH]nnc2c1
GI50 (A549): > 100 µM (inactive)
GI50 (HOP-92): > 100 µM (inactive)
GI50 (KM-20L2): > 100 µM (inactive)
GI50 (UO-31): > 100 µM (inactive)
GI50 (NCI-H522): > 100 µM (inactive)
GI50 (IGROV-1): > 100 µM (inactive)
GI50 (SNB-75): > 100 µM (inactive)
GI50 (MOLT-4): > 100 µM (inactive)
GI50 (Malme-3M): > 100 µM (inactive)
GI50 (CAKI-1): > 100 µM (inactive)
GI50 (NCI-H226): > 100 µM (inactive)
GI50 (LXFL 529): > 100 µM (inactive)
GI50 (COLO 205): > 100 µM (inactive)
GI50 (K562): > 100 µM (inactive)
GI50 (OVCAR-4): > 100 µM (inactive)
GI50 (SW-620): > 100 µM (inactive)
GI50 (OVCAR-3): > 100 µM (inactive)
GI50 (SF-539): > 100 µM (inactive)
GI50 (HCT-116): > 100 µM (inactive)
GI50 (786-0): > 100 µM (inactive)
GI50 (SK-OV-3): > 100 µM (inactive)
GI50 (UACC-62): > 100 µM (inactive)
GI50 (HL-60): > 100 µM (inactive)
GI50 (HOP-18): > 100 µM (inactive)
GI50 (TK-10): > 100 µM (inactive)
GI50 (LOX IMVI): > 100 µM (inactive)
GI50 (SR): > 100 µM (inactive)
GI50 (M14): > 100 µM (inactive)
GI50 (NCI-H23): > 100 µM (inactive)
GI50 (KM12): > 100 µM (inactive)
GI50 (DMS-114): > 100 µM (inactive)
GI50 (ACHN): > 100 µM (inactive)
GI50 (RXF 393): > 100 µM (inactive)
GI50 (DLD-1): > 100 µM (inactive)
GI50 (SK-MEL-28): > 100 µM (inactive)
GI50 (SF-268): > 100 µM (inactive)
GI50 (HCT-15): > 100 µM
GI50 (SF-295): > 100 µM (inactive)
GI50 (M19-MEL): > 100 µM (inactive)
GI50 (UACC-257): > 100 µM (inactive)
GI50 (HCC 2998): > 100 µM (inactive)
GI50 (HOP-62): > 100 µM (inactive)
GI50 (EKVX): > 100 µM (inactive)
GI50 (CCRF-CEM): > 100 µM (inactive)
GI50 (SNB-19): > 100 µM (inactive)
GI50 (NCI-H460): > 100 µM (inactive)
GI50 (OVCAR-8): > 100 µM (inactive)
GI50 (RXF 631): > 100 µM (inactive)
GI50 (U-251): > 100 µM (inactive)
GI50 (OVCAR-5): > 100 µM (inactive)
GI50 (A498): > 100 µM (inactive)
GI50 (HT-29): > 100 µM (inactive)
GI50 (SN12C): > 100 µM (inactive)
GI50 (RPMI-8226): > 100 µM (inactive)
GI50 (SNB-78): > 100 µM (inactive)
GI50 (SK-MEL-5): > 100 µM (inactive)
